Data on two molecules can be found in US4791113A, “Mitomycin derivatives as antileukemia agents” (Kyowa Hakko Kogyo Kabushiki Kaisha, priority 1986, dated 1988).

Each structure is given as a SMILES string. Values after ≈ are worked out from the molar mass of the structure shown.

For one series, the system named is Hela S3 cultured cells. In words: Effects upon Hela S3 cultured cells. Type of series: cell-based. The conditions noted are these: Homo sapiens, HeLa S3, 72 h. On the procedure:
Table 3 indicates the effects of typical Compounds (I) against Hela S3 culture cells. In this table, IC50 denotes the concentration of the test compound capable of reducing the number of cells to 50% the number of untreated cells.
Cultured cells of Hela S3 were added to a MEM medium containing 10% (V/V) of bovine fetal serum and […] of glutamine to obtain a cell suspension of 3×10^4 cells/ml. The cell suspension was poured into each well (1 ml/well) of a 24 well-multiplate for culturing at 37° C. in an incubator containing carbon dioxide (5%) and air (95%). After 24 hours, samples were dissolved or suspended in PBS, ethanol or dimethylsulfoxide and added to the medium at different concentrations, followed by culturing at 37° C. for 72 hours in the same incubator. An aspirator was used to collect the medium from each well. The surface of each medium was washed by adding PBS (1 ml) gently, and then PBS was sucked out. PBS containing trypsin (0.05%) and EDTA (0.02%) was poured into each well. After pipetting, the number of cells in each suspension was counted by the use of a microcell counter (commercial product of Toa Iyo Denshi K.K., Japan). By reference to a curve showing the concentration vs. the number of cells, the IC50 (concentration of sample capable of reducing the number of cells to 50% of the number of control untreated cells) was measured.

Series [1] can be described thus: in vivo. The conditions noted are these: mouse, ip, single abdominal administration, ddy mice, 14 days, Behrens-Korber's method. From the text: (§1) In this table, C.I. denotes chemotherapeutic index, calculated as C.I.=(LD50)/(ED50), wherein LD50 denotes the value of acute toxicity, and ED50 denotes the dose of a sample which is capable of reducing the volume of Sarcoma 180 solid tumour to 50% of the corresponding volume of the solid tumour of untreated group.
(§2) The test compound was abdominally administered once to ddy mice, each group consisting of 5 animals.

Another series relates to Sarcoma 180 solid tumour. Type of series: in vivo, ddy mouse. The conditions noted are these: C.I.=(LD50)/(ED50), ED50 = dose at T/C=0.5, i.v. (tail vein), 7 days.
Excerpt: as §1, §2
(§3) 5×10^6 cells of Sarcoma 180 solid tumour were abdominally implanted into a ddy mouse. 7 days after this, the cells were collected from the ascites fluid. The cells were washed once with physiological saline under sterile conditions and suspended in physiological saline to obtain a cell suspension containing 5×10^7 cells/ml of which 0.1 ml was implanted into a ddy male mouse (body weight 20±2 g) under the skin of the right armpit. The test compound was dissolved in physiological saline or the same solution containing Tween 80. 24 hours after implantation of the tumour cells, 0.1-0.2 ml of the solution containing the test compound was administered to the tail vein of each animal in the test group consisting of 5 animals. 7 days after the implantation, the major axis (a) and minor axis (b) of the tumour were measured to calculate the volume of the tumour as "a"×"b^2 "/2. The antitumour effect was indicated by T/C which is the ratio of the tumour volume in the test animals to the corresponding volume of the control (untreated) animals.
(§4) T/C ratios and the dose were respectively plotted on the ordinate using an arithmetic scale and on the abscissa using a logarithmic scale, the relationship between the dosage and the T/C ratio being converted to a straight line by the least squares method. From the straight tropic line thus-obtained, the dosage corresponding to a T/C=0.5 viz. ED50 was determined.

Series [2] in a line: in vivo. The arrangement: species or system mice (ddy strain). Conditions: mouse, ip, ratio of dose reducing peripheral leucocytes to 4000 (per mm^3; i.p., 4 days) to ED50 (Sarcoma 180), read-out: (WBC4000)/(ED50).
Excerpt: as §1, §3, §4
Sarcoma 180 solid tumour cells (5×10^6) were subcutaneously implanted under the skin of the right armpit of each mouse (body weight 20±2 g) of a group consisting of 5 male mice (ddy strain). 24 hours after this, a test compound was intraperitoneally administered to each animal. 4 days later, blood (0.02 ml) was collected from the suborbital plexus vein of each tumour-carrying animal. The collected sample of blood was dispersed in 9.98 ml of Cellkit Seven solution. One drop of saponin solution was added to the sample to dissolve erythrocytes and then a microcell counter was used to measure the number of leucocytes. On graph paper, the number of leucocytes was plotted on the ordinate using an arithmetic scale, and the dosage was plotted on the abscissa using a logarithmic scale to show the relationship of the dosage to the number of peripheral leucocytes, from which the value of WBC4000 viz. a value capable of giving 4000 peripheral leucocytes per mm^3 (about half of the corresponding value in normal mice) was obtained.

As usually defined, the IC50 is the midpoint of a concentration-inhibition curve. Low values mean inhibition by little substance, high ones a need for much substance. As a reminder, the LD50 is the dose expected to kill half of the subjects tested. Read a high LD50 as lower toxicity. `CO[C@@]12[C@H](COC(N)=O)c3c(O)c(N=NC(=O)c4ccccc4)c(C)c(O)c3N1C[C@H]1[C@@H]2N1C` (stereo partly drawn) [Example 21, [1aS-(1aα,8β,8aα,8bα)]-8-{[(aminocarbonyl)oxy]methyl}-6-[(benzoyl)azo]-4,7-dihydroxy-1,5-dimethyl-1,1a,2,8,8a,8b-hexahydro-8a-methoxy-azirino[2',3':3,4]pyrrolo[1,2-a]indole] displayed an IC50 with Hela S3 cultured cells of 0.75 µg/mL (≈ 1.6 µM). Further, the LD50 at 336 h in “in vivo [1]” is more than 100 mg/kg. Further, the “C.I. (chemotherapeutic index)” value with Sarcoma 180 solid tumour is listed as more than 1.0. The selectivity ratio in the series “in vivo [2]” came to 0.62.

For the molecule `CO[C@@]12[C@H](COC(N)=O)c3c(O)c(N=NC4=NCCN4)c(C)c(O)c3N1C[C@@H]1N[C@@H]12` [Example 23, [1aS-(1aα,8β, 8aα,8bα)]-8-{[(aminocarbonyl)oxy]methyl}-4,7-dihydroxy-1,1a,2,8,8a,8b-hexahydro-6[(2"- imidazolinyl)azo]-8a-methoxy-5-methyl-azirino[2',3':3,4]pyrrolo[1,2-a]indol], inhibition in the series on Hela S3 cultured cells was half-maximal at 0.162 µg/mL (≈ 0.388 µM) (IC50). Further, in “in vivo [1]”, the LD50 at 336 h is more than 100 mg/kg. In the series on Sarcoma 180 solid tumour, the “C.I. (chemotherapeutic index)” value is listed as more than 0.6. Also, in the series “in vivo [2]”, the selectivity ratio came out at 0.5.
